Test [1] relates to WIL2-S cells. Description: CD20 mAb-induced CDC of WIL2-S cells, PI/FACS analysis. It is filed as cell-based, human. As to conditions: for CDC inducing capacity after cholesterol replenishment: WIL2-S cells, cholesterol replenished; for sensitivity for CDC induction: lovastatin-treated vs non-treated WIL2-S cells. In general terms: A flow cytometer gives signals particle by particle.

Test [2] deals with T1, CD20 on Daudi cells (Homo sapiens, UniProt P11836).
T1 construct: endogenous in cells; host or cells: Daudi cells
T1 sequence (P11836 1-297): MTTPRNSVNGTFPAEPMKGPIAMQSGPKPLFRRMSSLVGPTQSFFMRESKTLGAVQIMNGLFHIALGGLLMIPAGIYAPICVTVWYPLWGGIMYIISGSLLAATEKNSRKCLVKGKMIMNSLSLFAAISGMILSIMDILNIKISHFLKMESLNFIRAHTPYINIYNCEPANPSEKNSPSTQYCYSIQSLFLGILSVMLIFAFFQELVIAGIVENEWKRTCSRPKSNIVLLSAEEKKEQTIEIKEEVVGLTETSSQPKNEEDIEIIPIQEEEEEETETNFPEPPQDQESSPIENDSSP
Description: FACS binding of anti-CD20 mAb to MβCD-treated Daudi cells. As to the method:
To deplete cholesterol from the cell membrane, methyl-beta-cyclodextrin (MβCD, Sigma, Zwijndrecht, The Netherlands) was added in varying concentrations to Daudi cells and RAJI-CD20high cells and incubated for 30 minutes at 37° C. under gentle shaking conditions. After incubation the cells were washed twice in PBS and resuspended in test medium to a concentration of 2×10^6 viable cells/ml. […] After washing twice with FACS buffer (PBS, 0.1% Bovine Serum Albumine, 0.02% Sodium Azide), cells were analyzed on a FACS Calibur (Becton Dickinson, Breda, The Netherlands). […] Binding is expressed as mean fluorescence intensity.
Cholesterol was depleted from the cell membrane of various B cells using varying concentrations of MβCD (as described in Example 2). Cells (1×10^5 cells/staining) were incubated with a serial dilution of human CD20 mAb 2F2 starting at saturating concentrations for 30 minutes at 4° C. After washing with FACS buffer, polyclonal rabbit-anti-human IgG-FITC (DAKO A/S, Denmark) was added for 30 minutes at 4° C. The cells were washed again, resuspended in FACS buffer and analyzed by flow cytometry. The mean fluorescence intensity (MFI) is a measure for CD20 binding of the mAb. Sigmoidal dose-response curves were calculated using non-linear regression and the EC50 of mAb binding were determined (using GraphPad Prism 4 statistical software).

Test [3] addresses T2, CD20 on WIL2-S cells (Homo sapiens, UniProt P11836).
T2 construct: endogenous in cells; host or cells: WIL2-S cells
T2 sequence (P11836 1-297): T1 sequence (P11836 1-297)
Description: Binding of anti-CD20 mAb to WIL2-S cells with varied cholesterol content. As to conditions: for affinity in binding to cholesterol-depleted cells: WIL2-S cells depleted with lovastatin; for binding affinity after addition of cholesterol: cholesterol added to non-treated control WIL2-S cells; for binding affinity after replenishing of cholesterol: lovastatin-treated WIL2-S cells replenished with cholesterol. Here is the method:
To reconstitute cholesterol into the cell membrane of the cells or increase the cholesterol content of the untreated cells, cholesterol (ICN Biomedicals, Zoetermeer, The Netherlands) was added to the test medium in a final concentration of 5 mg/ml 2 hours prior to FACS analysis. The cells were incubated for 30 minutes at 37° C. under gentle shaking conditions, after which the cells were washed twice in PBS and resuspended to 2×10^6 viable cells/ml. For comparison MβCD- and lovastatin-treated cell lines treated with only diluent were included.
To confirm that lovastatin treatment might result in a change in CD20 mAb binding affinity lovastatin-treated RAJI cells were stained with a concentration curve of CD20 mAb. […] After washing with FACS buffer, polyclonal rabbit-anti-human IgG-FITC (DAKO A/S, Denmark) was added for 30 minutes at 4° C. to detect the bound CD20 mAb. Cells were washed again, resuspended in FACS buffer and analyzed on a flow cytometer. The mean fluorescence intensity (MFI) was taken as measure for CD20 binding of the mAb.
Binding of anti-CD20 mAb to CD20 on various B cell lines could be restored upon replenishment of the cell membrane cholesterol content via addition of cholesterol (according to procedure as described in Example 4) to either MβCD- or lovastatin-treated cells, as measured by FACS analysis (FIG. 3). This was also observed for WIL2-S cells for which binding affinity of anti-CD20 mAbs to CD20 was determined after reconstitution of cholesterol of cholesterol-depleted cells using flow cytometry (FIG. 13).

Test [4] has as its system Daudi cells. Description: CD20 mAb-induced CDC of Daudi cells, PI/FACS analysis. The class given is cell-based, human. As to conditions: for induction of CDC: non-treated Daudi cells, 15% normal human serum. As to the method: Cells were either non-treated or cholesterol-depleted as described in Example 2, Example 3 and Example 4, and resuspended in test medium to a concentration of 2×10^6 viable cells/ml. Daudi cells were used as target cells in a mAb-induced CDC assay. 50 μl of cell suspension was incubated with 50 μl anti-CD20 mAb in a serial dilution for 15 minutes at room temperature. After the incubation period, Normal Human Serum (M0008, Sanquin, Amsterdam, The Netherlands) was added as a source of complement (final concentration, 15%) to the cell suspension in round-bottomed microtiter plates (Nunc, Rochester, N.Y.). The mixture was incubated for 45 minutes at 37° C. after which the reaction was stopped by placing the samples on ice. Propidium iodide (PI, Sigma Aldrich, Zwijndrecht, The Netherlands) was added as a means to visualize the DNA content which becomes accessible upon permeabilisation of the cell membrane. The amount of PI-positive cells is directly correlated to the amount of dead cells, and measured using flow cytometry.

Test [5] has as its system Daudi cells. Description: CDC of Daudi cells, Alamar Blue assay. The class given is cell-based, human. In general terms: The colour change of resazurin is a common sign of viable cells or microbes.
Test [6] relates to RAJI cells. Description: CDC of RAJI cells, MTT analysis. The class given is cell-based, human. Here is the method:
CDC was induced by incubating B cells with anti-CD20 mAb (as described in Example 2). After 1-hour incubation (3-(4,5-dimethylthiazol-2-yl)-2,5-diphenyltetrazolium bromide (MTT) solution (5 mg/ml, Roche, Diagnostics, Almere, The Netherlands) was added to each well (flat-bottom microtiter plates; Nunc, Rochester, N.Y.). The reaction was stopped after 4 hours of incubation at 37° C. by the addition of 100 μl of 20% SDS (Roche Diagnostics, Almere, The Netherlands). After overnight incubation at 37° C. the absorbance of the samples was measured at 550-525 nm using an Elisa reader (EL808x, Biotek instruments, Highland park, Vt., USA). Cytotoxicity was expressed as a relative viability of the stimulated cells compared to cells incubated with medium only and was calculated as follows: relative viability=[(Ae−Ab)/(Ac−Ab)]*100, where Ab is the background absorbance, Ae is experimental absorbance of the lysed cells and Ac is the absorbance of untreated cells. The viability was expressed as percentage survival in comparison to non-cholesterol depleted cells (control).

These results are taken from US20110091473A1, “NOVEL ANTIBODY THERAPIES” (GENMAB A/S, priority 2007, published 2011).

Regarding “2F2: human anti-CD20 mAb, VH SEQ ID NO:1, VL SEQ ID NO:2, disclosed in WO 2004/035607”, in test [1], the “CDC inducing capacity after cholesterol replenishment” value is “fully restored” and the “sensitivity for CDC induction” value is “less sensitive”. In addition, the “reduction of binding affinity for CD20 (increase in EC50)” value in test [2] (0 mg/ml vs 5 mg/ml MβCD, Daudi cells) was roughly 8 fold. Moreover, the “binding of FITC-conjugated mAb (mean fluorescence intensity)” value in test [2] (Daudi cells treated with varying concentrations of MβCD, 30 min) is given as “dose-dependent decrease in binding”. In test [3], the “affinity in binding to cholesterol-depleted cells” value is “reduced affinity”, the “binding affinity after addition of cholesterol” value is given as “further improved the binding affinity” and the “binding affinity after replenishing of cholesterol” value is “restores affinity to the level of non-treated cells”. The “cells lysed via CDC” value in test [4] (cholesterol-depleted Daudi cells) turned out to be 50%. Further, the “induction of CDC” value in test [4] was “induced CDC”. Moreover, the “potency in inducing cell lysis, compared with rituximab or 11B8” value in test [5] (Daudi cells) was “more potent”. Besides, in test [5] (lovastatin-treated Daudi cells), the “CDC induction when treating cells with lovastatin” value was “still capable of inducing CDC” and the “survival upon mAb-induced CDC” value is reported as “enhanced survival”. Also, the “potency to lyse cells in presence of complement, compared with rituximab” value in test [6] (RAJI cells depleted of cholesterol with MβCD) is “more potent”.

In the case of “rituximab: anti-CD20 antibody Rituxan/MabThera, type I”, in test [1], the “CDC inducing capacity after cholesterol replenishment” value was “fully restored” and the “sensitivity for CDC induction” value is listed as “less sensitive”. In addition, the “binding affinity upon cholesterol depletion” value in test [2] (MβCD-treated Daudi cells) was “negatively affected”. In addition, in test [3], the “affinity in binding to cholesterol-depleted cells” value was “reduced affinity”, the “binding affinity after addition of cholesterol” value is listed as “further improved the binding affinity” and the “binding affinity after replenishing of cholesterol” value was “restores affinity to the level of non-treated cells”. Moreover, the CDC-mediated lysis result in test [4] (cholesterol-depleted (lovastatin or MβCD) Daudi cells) is given as “abrogated”. For the same substance, the “induction of CDC” value in test [4] is “induced CDC”. In test [5] (lovastatin-treated Daudi cells), the “survival upon mAb-induced CDC” value is recorded as “enhanced survival”. In addition, in test [6] (RAJI cells depleted by lovastatin or MβCD vs non-treated), the “survival after CDC induction” value was “enhanced survival”. Moreover, the “capability to lyse cells after cholesterol replenishment” value in test [6] (depleted RAJI cells replenished with cholesterol vs non-treated) is reported as “further increased the capability”.
